In publication PMC6099740, “Design, Synthesis and Biological Evaluation of 6,7-Disubstituted-4-phenoxyquinoline Derivatives Bearing Pyridazinone Moiety as c-Met Inhibitors” (Molecules : A Journal of Synthetic Chemistry and Natural …, 2018):

Key:
A549 cells = assay: MTT cytotoxicity assay, A549; type: cell-based; conditions: Homo sapiens, 72 h
Experimental: (§1) The results expressed as IC50 values were summarized in Table 1, and the values were the average of at least two independent experiments.
(§2) The cancer cell lines were cultured in minimum essential medium (MEM) supplement with 10% fetal bovine serum (FBS). […] The test compounds at indicated final concentrations were added to the culture medium and the cell cultures were continued for 72 h. […] All of the compounds were tested two times in each of the cell lines. The results expressed as inhibition rates or IC50 (half-maximal inhibitory concentration) were the averages of two determinations and calculated by using the Bacus Laboratories Incorporated Slide Scanner (Bliss) software (the Bacus Laboratories Inc. Slide Scanner (BLISS) system, Lombard, IL, USA)..

HepG2 cells = assay: MTT cytotoxicity assay, HepG2; type: cell-based; conditions: Homo sapiens, 72 h
Experimental: as §1
(§3) The cancer cell lines were cultured in minimum essential medium (MEM) supplement with 10% fetal bovine serum (FBS). Approximately 4 × 10^3 cells, suspended in MEM medium, were plated onto each well of a 96-well plate and incubated in 5% CO2 at 37 °C for 24 h. The test compounds at indicated final concentrations were added to the culture medium and the cell cultures were continued for 72 h. Fresh MTT was added to each well at a terminal concentration of 5 μg/mL and incubated with cells at 37 °C for 4 h. The formazan crystals were dissolved in 100 μL DMSO each well, and the absorbency at 492 nm (for absorbance of MTT formazan) and 630 nm (for the reference wavelength) was measured with the ELISA reader. All of the compounds were tested two times in each of the cell lines. The results expressed as inhibition rates or IC50 (half-maximal inhibitory concentration) were the averages of two determinations and calculated by using the Bacus Laboratories Incorporated Slide Scanner (Bliss) software (the Bacus Laboratories Inc. Slide Scanner (BLISS) system, Lombard, IL, USA)..

MCF-7 cells = assay: MTT cytotoxicity assay, MCF-7; type: cell-based; conditions: Homo sapiens, MCF7, 72 h
Experimental: as §1, §2

A549, HepG2, MCF-7 = assay: MTT cytotoxicity assay, range over the three cancer cell lines; type: cell-based; conditions: Homo sapiens; range over A549, HepG2 and MCF-7
Experimental: as §1, §3

c-Met kinase = c-Met kinase (Homo sapiens, UniProt P08581); assay: c-Met kinase inhibition assay (HTRF; mobility shift)
Chain of c-Met kinase (P08581 25-1390): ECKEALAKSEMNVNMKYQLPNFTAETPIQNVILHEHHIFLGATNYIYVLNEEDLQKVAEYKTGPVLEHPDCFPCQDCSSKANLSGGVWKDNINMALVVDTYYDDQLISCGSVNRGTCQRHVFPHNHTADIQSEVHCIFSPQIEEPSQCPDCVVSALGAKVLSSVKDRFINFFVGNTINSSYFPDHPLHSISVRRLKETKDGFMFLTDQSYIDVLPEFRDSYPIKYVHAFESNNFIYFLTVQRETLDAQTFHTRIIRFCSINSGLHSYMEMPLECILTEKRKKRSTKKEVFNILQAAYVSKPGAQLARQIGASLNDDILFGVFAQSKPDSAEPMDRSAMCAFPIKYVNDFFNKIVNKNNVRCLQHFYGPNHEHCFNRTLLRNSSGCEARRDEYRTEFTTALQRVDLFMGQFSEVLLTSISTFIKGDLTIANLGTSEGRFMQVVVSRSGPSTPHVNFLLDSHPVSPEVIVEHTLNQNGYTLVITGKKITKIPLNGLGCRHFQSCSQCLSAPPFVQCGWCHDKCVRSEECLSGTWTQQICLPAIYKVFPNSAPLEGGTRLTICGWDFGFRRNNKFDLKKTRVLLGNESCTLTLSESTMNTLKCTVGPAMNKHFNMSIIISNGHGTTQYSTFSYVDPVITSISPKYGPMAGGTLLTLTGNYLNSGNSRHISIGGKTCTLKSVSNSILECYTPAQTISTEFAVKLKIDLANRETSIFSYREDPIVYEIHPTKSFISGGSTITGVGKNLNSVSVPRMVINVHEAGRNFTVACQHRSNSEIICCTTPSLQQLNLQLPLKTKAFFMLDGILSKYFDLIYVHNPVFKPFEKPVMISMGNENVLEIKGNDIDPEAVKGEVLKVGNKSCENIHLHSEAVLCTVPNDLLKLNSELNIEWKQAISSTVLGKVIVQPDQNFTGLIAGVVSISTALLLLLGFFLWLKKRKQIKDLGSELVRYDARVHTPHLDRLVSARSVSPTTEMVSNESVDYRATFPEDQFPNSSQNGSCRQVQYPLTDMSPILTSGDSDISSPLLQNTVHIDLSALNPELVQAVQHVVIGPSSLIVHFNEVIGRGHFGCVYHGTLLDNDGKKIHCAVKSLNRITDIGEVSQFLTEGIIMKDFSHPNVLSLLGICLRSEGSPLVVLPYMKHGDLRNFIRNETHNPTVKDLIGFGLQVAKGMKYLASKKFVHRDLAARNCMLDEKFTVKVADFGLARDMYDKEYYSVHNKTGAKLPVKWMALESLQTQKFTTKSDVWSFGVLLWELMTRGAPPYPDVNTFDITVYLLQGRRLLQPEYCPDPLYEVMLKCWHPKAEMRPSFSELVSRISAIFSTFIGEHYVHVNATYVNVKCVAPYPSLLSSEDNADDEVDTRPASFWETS
Experimental: All kinase assays were performed in 96-well plates in a 50 µL reaction volume. The kinase buffer contains 50 mM HEPES, pH 7.5, 10 mM MgCl2, 0.0015% Brij-35 and 2 mM DTT. The stop buffer contains 100 mM HEPES, pH 7.5, 0.015% Brij-35, 0.2% Coating Reagent 3 and 50 mM EDTA. Dilute the compounds to 500 µM by 100% DMSO, then transfer 10 µL of compound to a new 96-well plate as the intermediate plate, add 90 µL kinase buffer to each well. Transfer 5 µL of each well of the intermediate plate to 384-well plates. The following amounts of enzyme and substrate were used per well: kinase base buffer, FAM-labeled peptide, ATP and enzyme solution. Wells containing the substrate, enzyme, DMSO without compound were used as DMSO control. Wells containing just the substrate without enzyme were used as low control. Incubate at room temperature for 10 min. Add 10 µL peptide solution to each well. […] At last collect data on Caliper program and convert conversion values to inhibition values. Percent inhibition = (max − conversion)/(max − min) × 100. ‘max’ stands for DMSO control; ‘min’ stands for low control [20].

Structure (SMILES)	melting point	IC50 (c-Met kinase)	IC50 (A549 cells)	IC50 (HepG2 cells)	IC50 (MCF-7 cells)	IC50 (A549, HepG2, MCF-7)
COc1cc2c(Oc3ccc(NC(=O)c4nn(-c5ccc(F)c(Cl)c5)ccc4=O)cc3F)ccnc2cc1OCCCN1CCC(C)CC1 [Compound 42, 1-(3-Chloro-4-fluorophenyl)-N-(3-fluoro-4-((6-methoxy-7-(3-(4-methylpiperidin-1-yl)propoxy)quinolin-4-yl)oxy)phenyl)-4-oxo-1,4-dihydropyridazine-3-carboxamide]	112.5 to 113.7 °C	1.2 nM	5 ± 1 nM	1030 ± 10 nM	7 ± 1 nM	2 to 1030 nM
COc1cc2c(Oc3ccc(NC(=O)c4nn(-c5ccc(Cl)c(C(F)(F)F)c5)ccc4=O)cc3F)ccnc2cc1OCCCN1CCN(C)CC1 [Compound 52, 1-(4-Chloro-3-(trifluoromethyl)phenyl)-N-(3-fluoro-4-((6-methoxy-7-(3-(4-methylpiperazin-1-yl)propoxy)quinolin-4-yl)oxy)phenyl)-4-oxo-1,4-dihydropyridazine-3-carboxamide]	211.7 to 212.6 °C	0.8 nM	40 ± 10 nM	330 ± 30 nM	150 ± 20 nM	2 to 1030 nM
COc1cc2c(Oc3ccc(NC(=O)c4nn(-c5ccc(Br)cc5)ccc4=O)cc3F)ccnc2cc1OCCCN1CCCCC1 [Compound 32, 1-(4-Bromophenyl)-N-(3-fluoro-4-((6-methoxy-7-(3-(piperidin-1-yl)propoxy)quinolin-4-yl)oxy)phenyl)-4-oxo-1,4-dihydropyridazine-3-carboxamide]	141.3 to 143.4 °C	246 nM	2890 ± 460 nM	1750 ± 240 nM	2450 ± 390 nM	–
COc1cc2c(Oc3ccc(NC(=O)c4nn(-c5ccc(Cl)cc5)ccc4=O)cc3F)ccnc2cc1OCCCN1CCCCC1 [Compound 31, 1-(4-Chlorophenyl)-N-(3-fluoro-4-((6-methoxy-7-(3-(piperidin-1-yl)propoxy)quinolin-4-yl)oxy)phenyl)-4-oxo-1,4-dihydropyridazine-3-carboxamide]	158.2 to 159.6 °C	78 nM	570 ± 20 nM	690 ± 30 nM	1160 ± 60 nM	–
COc1cc2c(Oc3ccc(NC(=O)c4nn(-c5ccc(Br)cc5)ccc4=O)cc3F)ccnc2cc1OCCCN1CCOCC1 [Compound 24, 1-(4-Bromophenyl)-N-(3-fluoro-4-((6-methoxy-7-(3-morpholinopropoxy)quinolin-4-yl)oxy)phenyl)-4-oxo-1,4-dihydropyridazine-3-carboxamide]	125.7 to 127.1 °C	> 500 nM	> 50000 nM	> 50000 nM	> 50000 nM	–
COc1ccc(-n2ccc(=O)c(C(=O)Nc3ccc(Oc4ccnc5cc(OCCCN6CCCCC6)c(OC)cc45)c(F)c3)n2)cc1 [Compound 33, N-(3-Fluoro-4-((6-methoxy-7-(3-(piperidin-1-yl)propoxy)quinolin-4-yl)oxy)phenyl)-1-(4-methoxyphenyl)-4-oxo-1,4-dihydropyridazine-3-carboxamide]	105.4 to 106.5 °C	56 nM	2780 ± 440 nM	630 ± 80 nM	2350 ± 370 nM	–
COc1cc2c(Oc3ccc(NC(=O)c4nn(-c5ccc(Cl)cc5)ccc4=O)cc3F)ccnc2cc1OCCCN1CCN(C)CC1 [Compound 47, 1-(4-Chlorophenyl)-N-(3-fluoro-4-((6-methoxy-7-(3-(4-methylpiperazin-1-yl)propoxy)quinolin-4-yl)oxy)phenyl)-4-oxo-1,4-dihydropyridazine-3-carboxamide]	163.5 to 165.3 °C	145 nM	20000 ± 1300 nM	14200 ± 1150 nM	21100 ± 1320 nM	–
COc1cc2c(Oc3ccc(NC(=O)c4nn(-c5ccc(Br)cc5F)ccc4=O)cc3F)ccnc2cc1OCCCN1CCCCC1 [Compound 35, 1-(4-Bromo-2-fluorophenyl)-N-(3-fluoro-4-((6-methoxy-7-(3-(piperidin-1-yl)propoxy)quinolin-4-yl)oxy)phenyl)-4-oxo-1,4-dihydropyridazine-3-carboxamide]	105.9 to 107.4 °C	8 nM	1360 ± 190 nM	3100 ± 490 nM	1190 ± 80 nM	–

Continued by falling IC50 (c-Met kinase), values first:

melting point	IC50 (c-Met kinase)	Structure (SMILES)	IC50 (A549 cells)	IC50 (HepG2 cells)	IC50 (MCF-7 cells)	IC50 (A549, HepG2, MCF-7)
220.7 to 221.4 °C	345 nM	COc1cc2c(Oc3ccc(NC(=O)c4nn(-c5ccc(Br)cc5)ccc4=O)cc3F)ccnc2cc1OCCCN1CCC(C)CC1 [Compound 40, 1-(4-Bromophenyl)-N-(3-fluoro-4-((6-methoxy-7-(3-(4-methylpiperidin-1-yl)propoxy)quinolin-4-yl)oxy)phenyl)-4-oxo-1,4-dihydropyridazine-3-carboxamide]	13500 ± 1130 nM	8840 ± 950 nM	9740 ± 990 nM	–
153.8 to 155.2 °C	233 nM	COc1ccc(-n2ccc(=O)c(C(=O)Nc3ccc(Oc4ccnc5cc(OCCCN6CCOCC6)c(OC)cc45)c(F)c3)n2)cc1 [Compound 25, N-(3-Fluoro-4-((6-methoxy-7-(3-morpholinopropoxy)quinolin-4-yl)oxy)phenyl)-1-(4-methoxyphenyl)-4-oxo-1,4-dihydropyridazine-3-carboxamide]	4240 ± 620 nM	6750 ± 820 nM	27200 ± 1440 nM	–
220.6 to 222.1 °C	169 nM	COc1cc2c(Oc3ccc(NC(=O)c4nn(-c5ccc(Cl)cc5)ccc4=O)cc3F)ccnc2cc1OCCCN1CCC(C)CC1 [Compound 39, 1-(4-Chlorophenyl)-N-(3-fluoro-4-((6-methoxy-7-(3-(4-methylpiperidin-1-yl)propoxy)quinolin-4-yl)oxy)phenyl)-4-oxo-1,4-dihydropyridazine-3-carboxamide]	12400 ± 1090 nM	7810 ± 890 nM	14100 ± 1150 nM	–
185.7 to 186.6 °C	11 nM	COc1cc2c(Oc3ccc(NC(=O)c4nn(-c5ccc(Cl)c(C(F)(F)F)c5)ccc4=O)cc3F)ccnc2cc1OCCCN1CCCCC1 [Compound 36, 1-(4-Chloro-3-(trifluoromethyl)phenyl)-N-(3-fluoro-4-((6-methoxy-7-(3-(piperidin-1-yl)propoxy)quinolin-4-yl)oxy)phenyl)-4-oxo-1,4-dihydropyridazine-3-carboxamide]	790 ± 60 nM	1800 ± 260 nM	730 ± 80 nM	–
152.3 to 153.1 °C	4 nM	COc1cc2c(Oc3ccc(NC(=O)c4nn(-c5ccccc5)ccc4=O)cc3F)ccnc2cc1OCCCN1CCCCC1 [Compound 37, N-(3-Fluoro-4-((6-methoxy-7-(3-(piperidin-1-yl)propoxy)quinolin-4-yl)oxy)phenyl)-4-oxo-1-phenyl-1,4-dihydropyridazine-3-carboxamide]	60 ± 10 nM	180 ± 10 nM	30 ± 10 nM	2 to 1030 nM
115.8 to 117.3 °C	2 nM	COc1cc2c(Oc3ccc(NC(=O)c4nn(-c5ccc(Br)cc5F)ccc4=O)cc3F)ccnc2cc1OCCCN1CCC(C)CC1 [Compound 43, 1-(4-Bromo-2-fluorophenyl)-N-(3-fluoro-4-((6-methoxy-7-(3-(4-methylpiperidin-1-yl)propoxy)quinolin-4-yl)oxy)phenyl)-4-oxo-1,4-dihydropyridazine-3-carboxamide]	30 ± 10 nM	3 ± 1 nM	5 ± 1 nM	2 to 1030 nM
121.7 to 123.4 °C	2 nM	COc1cc2c(Oc3ccc(NC(=O)c4nn(-c5ccc(F)c(Cl)c5)ccc4=O)cc3F)ccnc2cc1OCCCN1CCCCC1 [Compound 34, 1-(3-Chloro-4-fluorophenyl)-N-(3-fluoro-4-((6-methoxy-7-(3-(piperidin-1-yl)propoxy)quinolin-4-yl)oxy)phenyl)-4-oxo-1,4-dihydropyridazine-3-carboxamide]	360 ± 40 nM	1280 ± 110 nM	150 ± 40 nM	–
145.1 to 146.3 °C	0.9 nM	COc1ccc(-n2ccc(=O)c(C(=O)Nc3ccc(Oc4ccnc5cc(OCCCN6CCC(C)CC6)c(OC)cc45)c(F)c3)n2)cc1 [Compound 41, N-(3-Fluoro-4-((6-methoxy-7-(3-(4-methylpiperidin-1-yl)propoxy)quinolin-4-yl)oxy)phenyl)-1-(4-methoxyphenyl)-4-oxo-1,4-dihydropyridazine-3-carboxamide]	20 ± 10 nM	8 ± 1 nM	20 ± 10 nM	2 to 1030 nM
